In the assay the target is T1, sproBACE1 (soluble human BACE1) (Homo sapiens, UniProt P56817).
T1 construct: sBACE1, corresponding to amino acids 1-454; made in house; host or cells: Sf9 insect cells (baculovirus), secreted into the medium
Nature of the assay: Peptide Hydrolysis Assay (HTRF, EuK-biotin labeled APPsw substrate). It is filed as biochemical. Conditions: 7 nM sproBACE1, APPsw substrate, pH 5.0, 3 hr at 30° C., HTRF 665/620 ratio. From the text: A predicted soluble form of human BACE1 (sBACE1, corresponding to amino acids 1-454) was generated from the full length BACE1 cDNA (full length human BACE1 cDNA in pCDNA4/mycHisA construct; University of Toronto) by PCR using the advantage-GC cDNA PCR kit (Clontech, Palo Alto, Calif.). A HindIII/Pmel fragment from pCDNA4-sBACE1myc/His was blunt ended using Klenow and subcloned into the Stu I site of pFASTBACI(A) (Invitrogen). A sBACE1mycHis recombinant bacmid was generated by transposition in DH10Bac cells(GIBCO/BRL). Subsequently, the sBACE1mycHis bacmid construct was transfected into sf9 cells using CellFectin (Invitrogen, San Diego, Calif.) in order to generate recombinant baculovirus. […]
Proteins, were eluted from the Q-sepharose column with Buffer B (20 mM HEPES, pH 8.0, 500 mM NaCl). […] Peak protein fractions as determined by the Bradford Assay (Biorad, Calif.) were concentrated using a Centricon 30 concentrator (Millipore). sBACE1 purity was estimated to be ˜90% as assessed by SDS-PAGE and Commassie Blue staining. […]
IC50 determinations for inhibitors, (I), were determined by measuring the percent change of the relative fluorescence at 665 nm divided by the relative fluorescence at 620 nm, (665/620 ratio), in the presence of varying concentrations of I and a fixed concentration of enzyme and substrate. […]

T1 sequence (P56817 22-454): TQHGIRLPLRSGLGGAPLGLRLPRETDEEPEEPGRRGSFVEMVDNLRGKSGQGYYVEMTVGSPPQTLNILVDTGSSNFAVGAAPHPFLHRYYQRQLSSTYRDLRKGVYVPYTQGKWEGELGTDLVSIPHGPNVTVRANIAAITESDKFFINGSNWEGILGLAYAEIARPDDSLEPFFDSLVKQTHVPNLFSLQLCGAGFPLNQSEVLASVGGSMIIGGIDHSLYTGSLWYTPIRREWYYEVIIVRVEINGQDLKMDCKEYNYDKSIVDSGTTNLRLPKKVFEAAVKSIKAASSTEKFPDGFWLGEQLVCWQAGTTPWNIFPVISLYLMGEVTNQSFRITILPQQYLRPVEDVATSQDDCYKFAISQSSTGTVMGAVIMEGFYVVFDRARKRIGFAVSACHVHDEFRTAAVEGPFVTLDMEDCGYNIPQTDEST

Take `CCCCCN1CC(C(=O)NC(Cc2cc(F)cc(F)c2)[C@H](O)[C@@H]2NCCN(Cc3ccccc3)C2=O)N(Cc2ccccc2)C1=O` (stereo partly shown) [Example 5FF]: the IC50 is 1 nM.

Values taken from patent US7598250B2, “Cyclic amine BACE-1 inhibitors having a heterocyclic substituent” (Schering Corporation, priority 2003, dated 2009).
